Results on two compounds are retold here after patent US20240342159A1, “VALBENAZINE FOR USE IN THE ADD-ON TREATMENT OF SCHIZOPHRENIA” (Neurocrine Biosciences, Inc., priority 2021, published 2024).

The target in one data set is CYP2D6 (Homo sapiens, UniProt P10635). As to the kind of experiment: metabolism of NBI-98782 by CYP2D6. Format: in vitro ADME.
The nature of data set [1]: central nervous system, respiratory and cardiovascular safety pharmacology studies. It is filed as in vivo. Conditions: compared with human exposure.
Data set [2] concerns cytochrome P450 (CYP) enzyme. As to the kind of experiment: cytochrome P450 (CYP) enzyme inhibition or induction. Format: in vitro ADME. As to conditions: at pharmacologically relevant concentrations.
The target in a further data set is P-glycoprotein (Homo sapiens, UniProt P08183). As to the kind of experiment: P-glycoprotein inhibition. It is filed as in vitro ADME. As to conditions: only at concentrations that could be achieved in the gastrointestinal tract.
In data set [3] the test system is panel of other drug transporters. In words: inhibition of a panel of other drug transporters. It is filed as in vitro ADME.
Data set [4] is described as follows: metabolism of valbenazine by hydrolysis. It is filed as in vitro ADME.
Another data set has as its system mice. As to the kind of experiment: repeat-dose nonclinical toxicology study, mouse. It is filed as in vivo.
The test system of data set [5] is rats. In words: repeat-dose nonclinical toxicology study, rat. Format: in vivo.
Another data set has as its system dogs. As to the kind of experiment: repeat-dose nonclinical toxicology study, dog. It is filed as in vivo.
Another data set in a line: rat fertility study. It is filed as in vivo. Conditions: rat, in vivo.
The next data set concerns rat fertility. As to the kind of experiment: rat fertility study. It is filed as in vivo. Conditions: 10 mg/kg/day.
A short description of data set [6]: embryo/fetal development study, rats. It is filed as in vivo, rat. Conditions: rat, in vivo. As for the experimental part: (§1) The NOAEL for embryo/fetal development in rats and rabbits was 15 mg/kg/day and 50 mg/kg/day, respectively. […] Valbenazine was negative in genotoxicity assays (in vitro Ames and chromosomal aberration assays and an in vivo rat micronucleus test).

Data set [7] relates to rats. As to the kind of experiment: embryo/fetal development study, rats. It is filed as in vivo, rat. As for the experimental part:
as §1

A short description of data set [8]: embryo/fetal development study, rabbits. Conditions: rabbit, in vivo. Format: in vivo, rabbit. As for the experimental part: as §1
A further data set relates to rabbits. As to the kind of experiment: embryo/fetal development study, rabbits. Format: in vivo, rabbit. As for the experimental part: as §1
Data set [9] in a line: in vitro Ames genotoxicity assay. It is filed as cell-based. As for the experimental part: as §1
Data set [10] can be described thus: in vitro chromosomal aberration assay. It is filed as cell-based. As for the experimental part: as §1
The next data set deals with rat. In words: in vivo rat micronucleus test. As for the experimental part:
as §1

For data set [11], the system named is rats. As to the kind of experiment: carcinogenicity study, rats. Format: in vivo, rat.
For a further data set, the system named is hemizygous Tg.rasH2 mice. In words: carcinogenicity study, hemizygous Tg.rasH2 mice. It is filed as in vivo, mouse.
For another data set, the system named is adults with TD. In words: adverse reactions in 3 placebo-controlled studies in adults with tardive dyskinesia. Conditions: 6-week treatment. It is filed as in vivo, human.
Data set [12] relates to pediatric subjects with TS. In words: treatment-emergent adverse events in pediatric subjects with Tourette Syndrome. It is filed as in vivo, human. As to conditions: higher incidence than placebo. An excerpt:
(§2) Common treatment-emergent adverse events (TEAEs) in pediatric subjects with TS with incidence >5% in the valbenazine treatment groups and with a higher incidence than placebo include headache, somnolence, sedation, upper respiratory tract infection, insomnia, fatigue, vomiting, and suicidal ideation. In the entire valbenazine clinical development program as of 10 Apr. 2021, treatment-emergent serious adverse events (SAEs) occurring in 3 or more valbenazine-treated subjects each were schizophrenia, suicidal ideation, chronic obstructive pulmonary disease, syncope, abdominal pain, depression, mental status changes, and schizoaffective disorder.

In data set [13] the test system is valbenazine-treated subjects. As to the kind of experiment: serious adverse events and deaths in the entire valbenazine clinical development program. It is filed as in vivo, human.
Text: as §2
Ten deaths have been reported in completed and ongoing valbenazine studies conducted by NBI: 9 occurred in adult subjects with TD and 1 adult subject with HD. Eight deaths occurred in subjects taking valbenazine, 1 occurred in a subject taking placebo, and 1 remains blinded.

In another data set the test system is QT interval. As to the kind of experiment: QT interval prolongation in clinical use. It is filed as in vivo, human.
Data set [14] can be described thus: clinical safety signals (cardiovascular, laboratory, vital signs, serum prolactin, suicidality). Format: in vivo, human.

Chain of P-glycoprotein (P08183 whole entry): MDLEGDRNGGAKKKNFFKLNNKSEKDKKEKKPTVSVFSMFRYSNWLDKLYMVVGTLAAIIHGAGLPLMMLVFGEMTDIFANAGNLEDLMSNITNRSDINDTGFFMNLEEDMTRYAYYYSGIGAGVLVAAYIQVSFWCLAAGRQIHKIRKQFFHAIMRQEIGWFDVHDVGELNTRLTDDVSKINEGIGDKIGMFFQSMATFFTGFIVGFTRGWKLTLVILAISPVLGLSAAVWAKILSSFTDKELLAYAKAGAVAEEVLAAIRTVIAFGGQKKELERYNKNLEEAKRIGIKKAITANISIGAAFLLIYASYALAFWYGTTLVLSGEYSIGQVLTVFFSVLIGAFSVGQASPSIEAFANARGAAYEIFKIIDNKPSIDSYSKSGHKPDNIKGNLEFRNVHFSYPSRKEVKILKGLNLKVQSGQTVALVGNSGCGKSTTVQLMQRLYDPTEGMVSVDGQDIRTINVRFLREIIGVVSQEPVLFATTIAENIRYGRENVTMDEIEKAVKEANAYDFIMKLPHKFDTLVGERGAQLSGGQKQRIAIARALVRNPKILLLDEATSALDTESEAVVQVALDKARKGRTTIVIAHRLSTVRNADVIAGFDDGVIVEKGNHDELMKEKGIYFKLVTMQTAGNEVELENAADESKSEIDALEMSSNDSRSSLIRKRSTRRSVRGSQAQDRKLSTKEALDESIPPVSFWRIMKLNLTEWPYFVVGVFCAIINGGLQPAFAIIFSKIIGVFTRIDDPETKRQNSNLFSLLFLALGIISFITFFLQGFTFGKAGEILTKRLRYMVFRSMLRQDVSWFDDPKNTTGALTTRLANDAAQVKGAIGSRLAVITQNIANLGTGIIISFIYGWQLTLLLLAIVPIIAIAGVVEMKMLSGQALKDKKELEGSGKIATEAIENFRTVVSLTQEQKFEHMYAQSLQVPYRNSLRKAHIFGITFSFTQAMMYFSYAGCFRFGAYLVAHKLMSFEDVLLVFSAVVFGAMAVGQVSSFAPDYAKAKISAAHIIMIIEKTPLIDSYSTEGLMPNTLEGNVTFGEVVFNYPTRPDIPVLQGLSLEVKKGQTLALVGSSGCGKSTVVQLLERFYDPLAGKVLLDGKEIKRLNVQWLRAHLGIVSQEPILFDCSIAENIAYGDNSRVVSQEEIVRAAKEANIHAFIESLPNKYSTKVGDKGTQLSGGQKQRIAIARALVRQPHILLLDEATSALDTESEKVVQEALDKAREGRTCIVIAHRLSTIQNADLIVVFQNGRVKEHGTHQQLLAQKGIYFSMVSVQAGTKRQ
Chain of CYP2D6 (P10635 whole entry): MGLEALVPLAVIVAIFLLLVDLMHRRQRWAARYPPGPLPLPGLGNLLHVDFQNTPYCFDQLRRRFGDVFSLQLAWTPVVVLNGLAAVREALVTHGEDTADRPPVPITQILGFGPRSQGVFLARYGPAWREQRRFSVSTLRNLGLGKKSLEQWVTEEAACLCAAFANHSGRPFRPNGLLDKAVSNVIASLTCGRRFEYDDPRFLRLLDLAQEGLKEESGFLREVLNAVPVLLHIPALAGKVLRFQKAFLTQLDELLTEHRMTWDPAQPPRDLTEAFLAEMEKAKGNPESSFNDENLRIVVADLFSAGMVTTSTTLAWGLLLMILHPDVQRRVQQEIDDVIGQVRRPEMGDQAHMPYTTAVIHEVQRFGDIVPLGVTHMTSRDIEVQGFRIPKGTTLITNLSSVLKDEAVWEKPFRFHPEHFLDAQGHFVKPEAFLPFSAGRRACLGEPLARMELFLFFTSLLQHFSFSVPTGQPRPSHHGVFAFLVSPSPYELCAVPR

As to “(+)-α-3-isobutyl-9,10-dimethoxy-1,3,4,6,7,11b-hexahydro-2H-pyrido[2,1-a]isoquinolin-2-ol [NBI-98782]”, the subsequent metabolism entry on CYP2D6 is listed as “metabolized in part by CYP2D6”. Moreover, in data set [1], the “systemic exposures at the NOAEL in safety pharmacology studies” value is “above those achieved at the highest proposed therapeutic dose in humans”.
Turning to `COc1cc2c(cc1OC)[C@H]1C[C@@H](OC(=O)[C@@H](N)C(C)C)[C@H](CC(C)C)CN1CC2` [Valbenazine, L-valine, (2R,3R,11bR)-1,3,4,6,7,11b-hexahydro-9,10-dimethoxy-3-(2-methylpropyl)-2H-benzo[a]quinolizin-2-yl ester], the “CYP enzyme inhibition or induction” value in [2] is “little or no cytochrome P450 (CYP) enzyme inhibition or induction”. The “inhibition of P-glycoprotein” value against P-glycoprotein was “moderate inhibitor”. The “inhibition of a panel of other drug transporters” value in data set [3] was “not an inhibitor”. Also, in [4], the metabolic pathway entry is recorded as “metabolized by hydrolysis to NBI-98782”. Moreover, the “dose with no adverse effects, repeat-dose toxicology” value with mice is 60 mg/kg/day; in the data set with rats [5], 3 mg/kg/day; in the data set on dogs, 15 mg/kg/day. Besides, the “systemic exposures at the NOAEL in safety pharmacology studies” value in data set [1] was “above those achieved at the highest proposed therapeutic dose in humans”. Besides, the NOAEL in the data set “rat fertility study” stood at 3 mg/kg/day; in data set [6], 15 mg/kg/day; in [8] it was 50 mg/kg/day. In the data set with rat fertility, the “effect on rat fertility” value is listed as “modest negative effect”. Moreover, the teratogenicity entry in the data set on rats [7] and in the data set on rabbits was “no evidence of teratogenicity” in each case. Besides, the “genotoxicity, Ames assay” value in data set [9] is “negative”. For the same compound, the “genotoxicity, chromosomal aberration assay” value in data set [10] was “negative”. Further, in the data set on rat, the “genotoxicity, rat micronucleus test” value is “negative”. Besides, the “tumors in carcinogenicity study” value in the data set on rats [11] and with hemizygous Tg.rasH2 mice was “did not increase tumors” throughout. In addition, the “incidence of anticholinergic effects (dry mouth, constipation, disturbance in attention, vision blurred, urinary retention)” value in the data set with adults with TD is recorded as 5.4%. Also, the “incidence of balance disorders/fall (fall, gait disturbance, dizziness, balance disorder)” value in the data set with adults with TD is given as 4.1%. Moreover, in the data set on adults with TD, the “incidence of somnolence (somnolence, fatigue, sedation)” value is reported as 10.9%. For the same compound, the “incidence of common TEAEs: headache, somnolence, sedation, upper respiratory tract infection, insomnia, fatigue, vomiting, suicidal ideation” value in [12] is listed as above 5%. Besides, the “relationship of deaths to study drug” value in data set [13] (all ten deaths) is listed as “not related or unlikely related”. In data set [13] (of ten deaths in completed and ongoing studies), the “deaths in subjects taking valbenazine” value is given as “Eight”. In the data set on QT interval (at concentrations expected with recommended dosing), the “degree of QT prolongation” value is reported as “not clinically significant”. The “QT prolongation with higher valbenazine concentrations” value in the data set on QT interval (subjects taking a strong CYP2D6 or CYP3A4 inhibitor, or CYP2D6 poor metabolizers) is given as “QT prolongation clinically significant”. Moreover, the “cardiovascular, laboratory or vital sign related safety signals” value in [14] (human, in vivo) is listed as “No cardiovascular, laboratory, or vital sign related safety signals”. In addition, the suicidality result in data set [14] (human, in vivo) is “does not appear to increase suicidality”. The serum prolactin result in data set [14] (mean changes with placebo considerably smaller) is listed as “Increases in serum prolactin above normal laboratory ranges”.
